Results taken from ChEMBL document CHEMBL1141018, “Synthesis and biological evaluation of homopiperazine derivatives with beta-aminoacyl group as dipeptidyl peptidase IV inhibitors” (Bioorg Med Chem Lett, 2008).
pIC50: −log10 of the molar value.

Tests used:
Dipeptidyl peptidase 4 = Dipeptidyl peptidase 4 (Homo sapiens, UniProt P27487)
Dipeptidyl peptidase 2 = Dipeptidyl peptidase 2 (Homo sapiens, UniProt Q9UHL4); assay: Inhibition of DPP2

Chain of Dipeptidyl peptidase 4 (P27487 whole entry): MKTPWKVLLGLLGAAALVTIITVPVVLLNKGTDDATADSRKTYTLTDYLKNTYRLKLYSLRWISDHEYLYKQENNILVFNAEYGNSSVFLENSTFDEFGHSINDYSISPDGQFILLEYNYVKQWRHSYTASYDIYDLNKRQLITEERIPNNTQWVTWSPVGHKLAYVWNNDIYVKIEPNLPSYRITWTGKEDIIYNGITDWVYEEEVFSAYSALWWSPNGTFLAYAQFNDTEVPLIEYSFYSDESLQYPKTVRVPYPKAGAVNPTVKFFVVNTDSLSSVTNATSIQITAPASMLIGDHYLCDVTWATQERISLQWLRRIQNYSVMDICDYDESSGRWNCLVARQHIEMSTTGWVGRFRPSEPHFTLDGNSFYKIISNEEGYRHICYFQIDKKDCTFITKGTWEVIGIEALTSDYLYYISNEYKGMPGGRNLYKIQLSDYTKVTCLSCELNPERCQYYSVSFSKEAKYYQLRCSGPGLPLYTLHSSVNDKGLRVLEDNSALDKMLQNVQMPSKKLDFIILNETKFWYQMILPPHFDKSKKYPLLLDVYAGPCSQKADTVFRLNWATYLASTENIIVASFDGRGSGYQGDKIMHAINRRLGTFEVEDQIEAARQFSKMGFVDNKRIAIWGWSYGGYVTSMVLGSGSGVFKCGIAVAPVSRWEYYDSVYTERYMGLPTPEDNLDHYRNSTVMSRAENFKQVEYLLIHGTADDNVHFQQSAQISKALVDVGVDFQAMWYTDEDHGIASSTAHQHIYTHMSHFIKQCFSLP

Compound | pIC50 (Dipeptidyl peptidase 4) | pIC50 (Dipeptidyl peptidase 2)
N[C@@H](CC(=O)N1CCCN(S(=O)(=O)c2ccc(C(=O)O)cc2)CC1)Cc1cc(F)c(F)cc1F | 6.62 | 
N[C@@H](CC(=O)N1CCCN(C(=O)Nc2ccc(C(=O)O)cc2)CC1)Cc1cc(F)c(F)cc1F | 6.10 | 
NC(=O)c1ccc(C(=O)N2CCCN(C(=O)C[C@H](N)Cc3cc(F)c(F)cc3F)CC2)cc1 | 6.74 | 
N[C@@H](CC(=O)N1CCCN(C(=O)c2ccc(S(N)(=O)=O)cc2)CC1)Cc1cc(F)c(F)cc1F | 6.54 | 
N[C@@H](CC(=O)N1CCCN(c2cnccn2)CC1)Cc1cc(F)c(F)cc1F | 6.37 | 
Cc1ccc(S(=O)(=O)N2CCCN(C(=O)C[C@H](N)Cc3cc(F)c(F)cc3F)CC2)cc1 | 6.46 | 
N[C@@H](CC(=O)N1CCCN(S(=O)(=O)c2ccc([N+](=O)[O-])cc2)CC1)Cc1cc(F)c(F)cc1F | 6.39 | 
N[C@@H](CC(=O)N1CCCNCC1)Cc1cc(F)c(F)cc1F | 5.84 | 
N[C@@H](CC(=O)N1CCCN(c2ncccn2)CC1)Cc1cc(F)c(F)cc1F | 6.22 | 
N[C@@H](CC(=O)N1CCCN(Cc2ccccc2)CC1)Cc1cc(F)c(F)cc1F | 6.41 | 

Results, then the compound that gave them:

pIC50 (Dipeptidyl peptidase 4) | pIC50 (Dipeptidyl peptidase 2) | Compound
6.59 |  | N[C@@H](CC(=O)N1CCCN(C(=O)c2ccc(C(=O)O)o2)CC1)Cc1cc(F)c(F)cc1F
6.82 |  | N[C@@H](CC(=O)N1CCCN(C(=O)c2ccc(C(=O)O)nc2)CC1)Cc1cc(F)c(F)cc1F
7.30 | 4.33 | N[C@@H](CC(=O)N1CCCN(C(=O)c2cccc(C(=O)O)c2)CC1)Cc1cc(F)c(F)cc1F
7.17 | 4.00 | N[C@@H](CC(=O)N1CCCN(C(=O)c2cncc(C(=O)O)c2)CC1)Cc1cc(F)c(F)cc1F
5.47 |  | CC(=O)N1CCCN(C(=O)C[C@H](N)Cc2cc(F)c(F)cc2F)CC1
6.31 |  | N[C@@H](CC(=O)N1CCCN(C(=O)c2ccc3c(c2)OCO3)CC1)Cc1cc(F)c(F)cc1F
5.19 |  | CCN1CCCN(C(=O)C[C@H](N)Cc2cc(F)c(F)cc2F)CC1
6.39 |  | N[C@@H](CC(=O)N1CCCN(C(=O)c2cccnc2)CC1)Cc1cc(F)c(F)cc1F
6.31 |  | N[C@@H](CC(=O)N1CCCN(C(=O)OCc2ccccc2)CC1)Cc1cc(F)c(F)cc1F
5.82 |  | CN1CCN(C(=O)N2CCCN(C(=O)C[C@H](N)Cc3cc(F)c(F)cc3F)CC2)CC1
5.51 |  | CS(=O)(=O)N1CCCN(C(=O)C[C@H](N)Cc2cc(F)c(F)cc2F)CC1
6.29 |  | N[C@@H](CC(=O)N1CCCN(C(=O)c2ccccc2)CC1)Cc1cc(F)c(F)cc1F
5.86 |  | N[C@@H](CC(=O)N1CCCN(C(=O)Nc2ccccc2)CC1)Cc1cc(F)c(F)cc1F
